In ChEMBL document CHEMBL3507680, “University of Dundee, Gates Library screen for HepG2 cell viability” one finds cytotoxicity data, which are given here for 71 compounds.

The structures appear in SMILES notation.

The series is described as follows: Human HepG2 cell viability assay in 384 well format. In kind it is toxicity, cell-based. More on the design: dose 125 nL, time 70.5 hour; cytotoxicity at 70.5 h: concentration not given beside the values. To be noted: HepG2 cells, read-out: Inhibition.
`CNS(=O)(=O)CCNCC1(O)CCCN(CCC2CCCCC2)C1=O` (stereo unspecified): the cytotoxicity at 70.5 h was -0.181%.

For the compound `CCn1c(CN2CCCC(Cn3cncn3)C2)nc2c(F)cccc21` (stereo unspecified), the cytotoxicity at 70.5 h turned out to be 1.73%.

For `CC(C)[C@@H]1CN(C2CCN(Cc3ccccc3)CC2)C[C@H]1NS(C)(=O)=O`, the cytotoxicity at 70.5 h was found to be 0.292%.

Consider `COc1ccccc1C(C#N)NC(=O)c1cccc2c1oc(=O)n2C` (stereo unspecified), for which the cytotoxicity at 70.5 h is -6.2%.

As to `CC(NC(=O)NCc1cccs1)c1ccc2c(c1)CCC(=O)N2` (stereo unspecified), the cytotoxicity at 70.5 h was -4.6%.

Turning to `CCOC(=O)NC(CNC(=O)c1cccc(C)n1)CC(C)C` (stereo unspecified), the cytotoxicity at 70.5 h is 7.69%.

Take `Fc1ccccc1OCCc1cc(C2CNCCO2)n[nH]1` (stereo unspecified): the cytotoxicity at 70.5 h is -5.54%.

For `O=C(NCc1cccc(F)c1)N1CCc2ncnc(NC3CC3)c2CC1`, the cytotoxicity at 70.5 h was determined as 1.62%.

Turning to `Cc1cccc(-c2noc(Cn3nc(C(N)=O)ccc3=O)n2)c1`, the cytotoxicity at 70.5 h was -4.08%.

With `O=C(C1=NN(Cc2ccccc2)c2ccccc2S1(=O)=O)N1CCCC1`, the cytotoxicity at 70.5 h is -0.281%.

In the case of `Cc1cc(NC(=O)N2CCCC2C(C)(C)O)c2ncccc2c1` (stereo unspecified), the cytotoxicity at 70.5 h is -75.7%.

As to `COC(=O)CC1CCN(C(=O)c2ccc(C)cc2)CC1`, the cytotoxicity at 70.5 h was -4.4%.

For `Cc1ccc(CN(C)C(=O)CN2CCCC2c2cnn(C)c2)o1` (stereo unspecified), the cytotoxicity at 70.5 h was 16.6%.

Consider `CN1CCN(Cc2nc3c(s2)CCCC3)[C@H]2CS(=O)(=O)C[C@H]21`, for which the cytotoxicity at 70.5 h amounted to 1.26%.

Regarding `CN(Cc1ccsc1)C(=O)CN1CCc2c(ncn2C)C1`, the cytotoxicity at 70.5 h was 17.8%.

Consider `CC(C)[C@H]1CN(Cc2ccccn2)C[C@@H]1NC(=O)CC1CCC1`, for which the cytotoxicity at 70.5 h was -3.45%.

On to `CCc1nnc(CN(C)c2nc(C3CCCC3)nc3c2cnn3C)o1`, for which the cytotoxicity at 70.5 h is -6.42%.

Turning to `CC(=O)NCC(=O)N1CCc2[nH]c(-c3ccccc3)nc2C1`, the cytotoxicity at 70.5 h was -1.22%.

For the compound `c1cc(C2CC2)n2cnc(C3CN(Cc4ccncc4)CCO3)c2c1` (stereo unspecified), the cytotoxicity at 70.5 h was -1.44%.

For `CC(=O)N1CC[C@@H]2CN(C(=O)c3ccco3)CCO[C@@H]2C1`, the cytotoxicity at 70.5 h was -29.3%.

`Cc1ccc(NC(=O)C2CSCN2C(=O)c2cnccn2)cc1C` (stereo unspecified): the cytotoxicity at 70.5 h was -9.37%.

For `C=C(C)CN1CCC(n2cc(C3CCCC3)nn2)CC1`, the cytotoxicity at 70.5 h is -2.5%.

`Cc1cccc(CN2C[C@@H]3COC[C@]3(COc3cccnc3)C2)n1`: the cytotoxicity at 70.5 h is -120%.

Consider `O=C(CC1CC1)N1CCCn2nnc(CNc3ncccn3)c2C1`, for which the cytotoxicity at 70.5 h is -1.8%.

On to `Cc1cc(CN2CCC(C3CCN(CCc4ccccc4)CC3)C2)[nH]n1` (stereo unspecified), for which the cytotoxicity at 70.5 h is -0.097%.

Turning to `COc1ccc(-c2nc(C3CCNCC3)cc3c2ncn3C)cc1`, the cytotoxicity at 70.5 h is 11.7%.

For `CC(C)SCc1cccc(NC(=O)NCCc2nnc[nH]2)c1`, the cytotoxicity at 70.5 h was determined as 11.5%.

Turning to `CCc1nc(C)c(CNC(=O)CCCN2CCCCC2)s1`, the cytotoxicity at 70.5 h is -1.08%.

Take `Cc1cnn(CCNCC(O)COc2ccc(C#N)cc2)c1` (stereo unspecified): the cytotoxicity at 70.5 h is -5.86%.

Turning to `O=C(CSC1CCc2ccccc2NC1=O)NCc1cccs1` (stereo unspecified), the cytotoxicity at 70.5 h is -13.4%.

On to `O=S(=O)(Cc1ccccc1)c1nnc(N2CCCC2)s1`, for which the cytotoxicity at 70.5 h was -2.76%.

Consider `CCC(C(=O)N1CCN(C(=O)N2CCOCC2)CC1)n1cccn1` (stereo unspecified), for which the cytotoxicity at 70.5 h is -5.93%.

`O=C(NCc1nc2cc(F)ccc2[nH]1)c1ccc[nH]1`: the cytotoxicity at 70.5 h is 17.9%.

`Cc1ccc(C(=O)NC2CCN(C(=O)NCc3ccccn3)CC2)o1`: the cytotoxicity at 70.5 h was -8.93%.

In the case of `O=C(O)c1ccc(Cc2cccc(F)c2)nc1`, the cytotoxicity at 70.5 h was -3.84%.

Turning to `COc1cccc(-c2noc(C3CCN(Cc4cn(C)nc4C)C3)n2)c1` (stereo unspecified), the cytotoxicity at 70.5 h is -5.53%.

Regarding `Cc1ncsc1C(=O)N1CCC(Nc2cccnn2)CC1`, the cytotoxicity at 70.5 h is -7.04%.

With `Cc1noc(C)c1CN(C)C(=O)c1ccc(C(N)=O)nc1`, the cytotoxicity at 70.5 h was -5.9%.

Regarding `NC(=O)[C@H]1CCCN1C(=O)c1csc(-c2ccc(C(F)(F)F)cc2)n1`, the cytotoxicity at 70.5 h is -6.09%.

As for `CCC(Nc1nc(C)nc2c1cnn2C)c1ncnn1CC` (stereo unspecified), the cytotoxicity at 70.5 h is -1.28%.

Take `COCc1ccccc1C(=O)NCC(O)c1ccccc1F` (stereo unspecified): the cytotoxicity at 70.5 h was -2.57%.

In the case of `CCC(C)N(Cc1cccnc1)C(=O)c1ccc(NS(=O)(=O)CC)cc1` (stereo unspecified), the cytotoxicity at 70.5 h is -1.92%.

Turning to `CCn1nc(C)c2nc(C(C)C)nc(NCCc3ccc(O)cc3)c21`, the cytotoxicity at 70.5 h is -7.1%.

As for `O=C(c1cccc(S(=O)(=O)NCCc2cscn2)c1)N1CCOCC1`, the cytotoxicity at 70.5 h was -1.05%.

Consider `CN1CCN(Cc2cn3c(n2)CN(C(=O)N2CCCC2)CC3)CC1`, for which the cytotoxicity at 70.5 h is 0.892%.

Regarding `CCn1cc(S(=O)(=O)N2CCC3(CCCN(CC4CCC4)C3=O)C2)cn1` (stereo unspecified), the cytotoxicity at 70.5 h is -0.872%.

`Cc1noc(CNc2ccccc2CC(=O)N(C)C)n1`: the cytotoxicity at 70.5 h is -4.56%.

Turning to `Cc1cnn(CC(C)NCc2ccc(OCc3cccnc3)cc2)c1` (stereo unspecified), the cytotoxicity at 70.5 h was found to be 2.45%.

Consider `CC(C)N1CCC(C(=O)N2CCC(C(O)c3nccn3C)CC2)CC1` (stereo unspecified), for which the cytotoxicity at 70.5 h was -11.2%.

With `CCN(C)CCNC(=O)Cc1nc(-c2ccco2)oc1C`, the cytotoxicity at 70.5 h is -13.2%.

Consider `Cc1ncsc1CN1C[C@@H](OCc2ccncc2)[C@H]2OCCC[C@H]21`, for which the cytotoxicity at 70.5 h was found to be 3.55%.

Turning to `CC(=O)NCCc1ncnn1-c1ccc(F)c(Cl)c1`, the cytotoxicity at 70.5 h worked out at 7.55%.

Consider `CCc1n[nH]c(=O)c(C(=O)N2CCSCC2)c1CC`, for which the cytotoxicity at 70.5 h was -9.39%.

In the case of `CCc1ccc(C(=O)N2CC[C@](C)(O)[C@H](C)C2)[nH]1`, the cytotoxicity at 70.5 h is -7.19%.

For the compound `COc1ccc(C2CCCN2C(=O)c2cc(C(C)C)on2)cc1` (stereo unspecified), the cytotoxicity at 70.5 h is -9.05%.

On to `CCOc1ccc(Cl)c(C(=O)N2CCN(CC(O)CC)CC2)n1` (stereo unspecified), for which the cytotoxicity at 70.5 h is -14%.

For the compound `Cc1nnc2ccc(N3CCC(C(=O)Nc4nccs4)CC3)nn12`, the cytotoxicity at 70.5 h is 1.41%.

Turning to `CCN(C(=O)c1cc2c([nH]c1=O)CCCC2=O)C1CCCCC1`, the cytotoxicity at 70.5 h was -5.73%.

As to `Cc1[nH]ccc1C(=O)NCC1CC(=O)N(CCc2ccccc2)C1` (stereo unspecified), the cytotoxicity at 70.5 h is -3.09%.

In the case of `COc1c(C2CCCN2C(=O)c2ccnn2C)c(C)nn1C` (stereo unspecified), the cytotoxicity at 70.5 h is -4.02%.

As to `CN(Cc1ncc(C(C)(C)C)o1)CC1CCCN1c1cccnn1` (stereo unspecified), the cytotoxicity at 70.5 h amounted to 23.4%.

As for `COc1ccc(S(=O)(=O)N2Cc3c(CN(C)C)nn(C)c3C2)cc1`, the cytotoxicity at 70.5 h was -3.13%.

For `COCCNC(=O)N1CCN(C(C)C(=O)NC(C)C)CC1` (stereo unspecified), the cytotoxicity at 70.5 h was -5.13%.

Take `CCN1CCN(C(=O)c2cc(C(F)(F)F)n[nH]2)[C@H]2CS(=O)(=O)C[C@H]21`: the cytotoxicity at 70.5 h is -18.6%.

`c1csc(CN2C[C@@H]3OCCN(CC4CCCO4)[C@@H]3C2)c1` (stereo partly specified): the cytotoxicity at 70.5 h is -7.54%.

Take `COc1ccccc1C(=O)N1CCN(CCc2scnc2C)CC1`: the cytotoxicity at 70.5 h is -7.23%.

Consider `CC(C)N1CCC(Cc2cnc(-c3cccc(C(=O)O)c3)cn2)C1` (stereo unspecified), for which the cytotoxicity at 70.5 h is -19.1%.

As for `Cc1cc(N2CCCCCC2)n2nc(C)c(C)c2n1`, the cytotoxicity at 70.5 h was -4.52%.

Turning to `O=C1CC(c2ccc(C(=O)O)cc2)c2ncn(-c3cccc(F)c3)c2N1` (stereo unspecified), the cytotoxicity at 70.5 h was -24.3%.

As to `Cc1cc(-n2c(C)cn(CN(C)C3CCS(=O)(=O)C3)c2=O)no1` (stereo unspecified), the cytotoxicity at 70.5 h is -14.6%.

For `O=c1c2c(ncn1CCO)nc1n2CCC1`, the cytotoxicity at 70.5 h is -5.61%.
